The IC50 is the concentration that inhibits the measured activity by half. Read a high IC50 as weaker potency in that assay. In general, inhibition refers to how much of the control response was suppressed. Low readings indicate a weak effect, high ones a strong effect.

For assay [1], the target named is T1, calcium-facilitated phospholipase A2γ (Homo sapiens, UniProt Q9UP65).
T1 sequence (Q9UP65 1-541): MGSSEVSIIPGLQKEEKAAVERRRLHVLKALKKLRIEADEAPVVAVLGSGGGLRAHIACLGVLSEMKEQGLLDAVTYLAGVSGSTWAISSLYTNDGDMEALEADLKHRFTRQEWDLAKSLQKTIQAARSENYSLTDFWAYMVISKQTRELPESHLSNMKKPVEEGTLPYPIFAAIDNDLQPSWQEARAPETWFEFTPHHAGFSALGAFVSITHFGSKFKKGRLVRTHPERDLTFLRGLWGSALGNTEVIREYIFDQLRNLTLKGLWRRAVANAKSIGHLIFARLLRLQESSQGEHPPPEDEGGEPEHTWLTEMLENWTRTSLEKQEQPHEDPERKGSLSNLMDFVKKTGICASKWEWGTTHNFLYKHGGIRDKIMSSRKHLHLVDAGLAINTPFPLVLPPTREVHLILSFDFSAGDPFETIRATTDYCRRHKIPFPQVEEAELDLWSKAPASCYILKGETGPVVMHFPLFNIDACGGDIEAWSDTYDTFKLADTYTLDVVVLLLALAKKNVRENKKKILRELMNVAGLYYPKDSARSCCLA
The note with it: at <50 μM [BEL]; Jenkins et al. 2002; cited from earlier work.

Assay [2] deals with myocardial cytosolic and membrane-associated iPLA2. The note with it: irreversible mechanism-based inhibitor; Hazen et al. 1991, Zupan et al., Gross et al. 1993; cited from earlier work.
A further assay deals with T2, human iPLA2γ (Homo sapiens, UniProt Q9NP80).
T2 sequence (Q9NP80 1-782): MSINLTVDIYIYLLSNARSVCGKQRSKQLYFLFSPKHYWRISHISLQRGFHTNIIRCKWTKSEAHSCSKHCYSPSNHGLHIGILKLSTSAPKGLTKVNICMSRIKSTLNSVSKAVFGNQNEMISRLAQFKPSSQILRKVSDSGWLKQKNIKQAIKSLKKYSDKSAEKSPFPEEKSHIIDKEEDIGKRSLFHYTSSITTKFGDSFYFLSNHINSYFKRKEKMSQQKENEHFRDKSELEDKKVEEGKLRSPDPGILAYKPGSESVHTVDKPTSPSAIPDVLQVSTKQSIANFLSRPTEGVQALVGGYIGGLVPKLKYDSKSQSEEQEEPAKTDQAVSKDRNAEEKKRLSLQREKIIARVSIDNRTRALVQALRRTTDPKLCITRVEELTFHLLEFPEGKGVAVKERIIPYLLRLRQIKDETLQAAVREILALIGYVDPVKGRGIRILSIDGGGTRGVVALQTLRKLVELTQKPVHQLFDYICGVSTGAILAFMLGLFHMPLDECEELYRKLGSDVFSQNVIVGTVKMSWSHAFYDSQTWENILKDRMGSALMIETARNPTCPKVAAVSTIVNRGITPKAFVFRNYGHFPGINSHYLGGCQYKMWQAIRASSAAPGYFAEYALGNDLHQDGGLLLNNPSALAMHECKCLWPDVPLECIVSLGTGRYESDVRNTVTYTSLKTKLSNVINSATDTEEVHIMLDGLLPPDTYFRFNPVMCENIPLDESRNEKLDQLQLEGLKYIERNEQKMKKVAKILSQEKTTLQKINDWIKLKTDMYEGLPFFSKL
Description: Inhibition by BEL of phospholipase A2 activity of iPLA2γ in membrane fractions of infected Sf9 cells. It counts as biochemical. The protocol: Briefly, Sf9 cells were infected with either wild-type baculovirus or baculovirus encoding human iPLA2γ, as described in Example 5. Cytosolic and membrane fractions of the infected Sf9 cells were prepared as described above. Phospholipase A2 activity was assessed as follows. Membrane fractions from control cells or cells expressing iPLA2γ were incubated with 40 μM L-α-1-palmitoyl-2-[1-^14C]oleoyl phosphatidylcholine in 100 mM Tris-Hac, pH 8.0, containing 1 mM EGTA at 37° C. Aliquots of the reaction were removed at the indicated times, and the amount of [1-^14C]oleic acid released was quantified as described above. Specifically, the release of sn-2-fatty acid from glycero-3-phosphocholine was determined as a function of time.
Briefly, Sf9 cells were infected with either wild-type baculovirus or baculovirus encoding human iPLA2γ, as described in Example 5. Membrane fractions of the infected Sf9 cells were prepared as described above, and then incubated for three minutes at room temperature in 100 mM Tris-HAc, pH 8.0, containing lmM EGTA, with varying concentrations of BEL, or ethanol vehicle, as indicated along the x-axis. L-α-1-palmitoyl-2-[1-^14C]oleoyl phosphatidylcholine (40 μM final concentration) in ethanol was then added to each reaction, followed by incubation at 37° C. for two minutes. Released [1-^14C]oleic acid was quantitated as described above. […]

Take `O=C1OC(=CBr)CCC1c1cccc2ccccc12` (stereo not shown) [BEL, (E)-6-(bromomethylene)-3-(1-napthalenyl)-2H-tetrahydropyran-2-one]: the “inhibition of calcium-facilitated phospholipase A2γ by BEL” value in assay [1] was “not inhibited”. In addition, the “concentrations giving nearly complete inhibition of myocardial cytosolic membrane-associated iPLA2” value in assay [2] was 2 to 5 µM. This compound displayed an IC50 against human iPLA2γ of around 3 µM. In addition, the inhibition at 5 µM against human iPLA2γ (5 μM BEL, preincubation of membranes for three minutes prior to addition of substrate (40 μM POPC), 37° C. two minutes) was around 70%.

The values are drawn from US20050003388A1, “Calcium independent phospholipase A2upsilon polynucleotides and polypeptides and methods therefor” (priority 2000, published 2005).
